Measured values taken from the NIST ThermoML archive (doi:10.1016/j.fluid.2013.06.031).

Conditions: Liquid, Closed cell (Static) method

CC(F)(F)CC(F)(F)F [1,1,1,3,3-pentafluorobutane]
Conditions | vapor or sublimation pressure [kPa]
332.79 K | 194.9
333.18 K | 197.1
342.65 K | 261.5
347.94 K | 303.9
352.87 K | 348.7
357.77 K | 401.1
363.03 K | 459.2
367.94 K | 519.8
372.87 K | 586.1
378.04 K | 662.3
382.95 K | 741.4
387.88 K | 828.9
393.02 K | 927.2
398.06 K | 1036.4
402.92 K | 1146
408.07 K | 1271.5
413.09 K | 1403.8
418 K | 1542.4
423.13 K | 1698.6
428.15 K | 1862.7
433.05 K | 2034.5
438.03 K | 2225.4
442.99 K | 2425.5
447.89 K | 2637.1
